How the values were obtained:
HIV-1 K103N-L100I mutant = assay: microbe, parasite or virus in culture; assay type: cell-based, human immunodeficiency virus type 1 (HIV-1); settings: Human immunodeficiency virus 1, HeLa, read-out: EC50 mutant K103N-L100I, mutant K103N-L100I
wild type HIV-1 = assay: microbe, parasite or virus in culture; assay type: cell-based, human immunodeficiency virus type 1 (HIV-1); settings: Human immunodeficiency virus 1, Hela-JC53

Row | Compound | EC50 (HIV-1 K103N-L100I mutant) [nM] | EC50 (wild type HIV-1) [nM]
1 | COc1ccc(Cn2cnc3nc(Nc4ccc(C#N)cc4)nc(Oc4c(C)cc(-c5ccncc5)cc4Cl)c32)cc1 [Example 99, 4-(6-(2-chloro-6-methyl-4-(pyridin-4-yl)phenoxy)-7-(4-methoxybenzyl)-7H-purin-2-ylamino)benzonitrile] | > 10 | 1 to 10
2 | Cc1cc(-c2ccncc2)ccc1Oc1nc(Nc2ccc(C#N)cc2)nc2nc[nH]c12 [Example 98, 4-(6-(2-Methyl-4-(pyridin-4-yl)phenoxy)-7H-purin-2-ylamino)benzonitrile] | > 10 | < 1
3 | Cc1cc(-c2ccc(C(=O)N3CCC(C#N)C3)cn2)cc(C)c1Oc1nc(Nc2ccc(C#N)cc2)nc2[nH]cnc12 (centres unmarked) [Example 127, 1-(6-(4-(2-(4-cyanophenylamino)-9H-purin-6-yloxy)-3,5-dimethylphenyl)nicotinoyl)pyrrolidine-3-carbonitrile] | > 10 | > 10
4 | Cc1cc(-c2ccc(C(N)=O)cc2)cc(C)c1Oc1nc(Nc2ccc(C#N)cc2)nc2c(Cl)cn(C)c12 [Example 88, 4′-(7-chloro-2-(4-cyanophenylamino)-5-methyl-5H-pyrrolo[3,2-d]pyrimidin-4-yloxy)-3′,5′-dimethylbiphenyl-4-carboxamide] | 1 to 10 | 1 to 10
5 | COc1c(F)cc(F)cc1-c1cc(C)c(Oc2nc(Nc3ccc(C#N)cc3)nc3ccn(C)c23)c(C)c1 [Example 67, 4-(4-(3′,5′-difluoro-2′-methoxy-3,5-dimethylbiphenyl-4-yloxy)-5-methyl-5H-pyrrolo[3,2-d]pyrimidin-2-ylamino) benzonitrile] | > 10 | < 1
6 | Cc1cc(-c2cc(F)cc(F)c2)cc(C)c1Oc1nc(Nc2ccc(C#N)cc2)nc2ccn(C)c12 [Example 65, 4-(4-(3′,5′-difluoro-3,5-dimethylbiphenyl-4-yloxy)-5-methyl-5H-pyrrolo[3,2-d]pyrimidin-2-ylamino) benzonitrile] | > 10 | < 1
7 | Cc1cc(-c2ccc(C(=O)N3CCC(O)C3)cc2)cc(C)c1Oc1nc(Nc2ccc(C#N)cc2)nc2ccn(C)c12 (centres unmarked) [Example 94, 4-(4-(4′-(3-hydroxypyrrolidine-1-carbonyl)-3,5-dimethylbiphenyl-4-yloxy)-5-methyl-5H-pyrrolo[3,2-d]pyrimidin-2-ylamino) benzonitrile] | 1 to 10 | 1 to 10
8 | Cc1cc(-c2ccc3nonc3c2)cc(C)c1Oc1nc(Nc2ccc(C#N)cc2)nc2ccn(C)c12 [Example 26, 4-(4-(4-(Benzo-[c][1,2,5]oxadiazol-5-yl)-2,6-dimethylphenoxy)-5-methyl-5H-pyrrolo[3,2-d]pyrimidin-2-ylamino) benzonitrile] | 1 to 10 | 1 to 10
9 | Cc1cc(-c2ccc(C(N)=O)cc2)cc(Cl)c1Oc1nc(Nc2ccc(C#N)cc2)nc2ncn(C)c12 [Example 116, 3′-chloro-4′-(2-(4-cyanophenylamino)-7-methyl-7H-purin-6-yloxy)-5′-methylbiphenyl-4-carboxamide] | 1 to 10 | < 1
10 | Cc1cc(-c2cccc(N(C)C)c2)cc(C)c1Oc1nc(Nc2ccc(C#N)cc2)nc2ccn(C)c12 [Example 33, 4-(4-(3′-(Dimethylamino)-3,5-dimethylbiphenyl-4-yloxy)-5-methyl-5H-pyrrolo [3,2-d]pyrimidin-2-ylamino) benzonitrile] | > 10 | > 10
11 | Cc1cc(-c2cccnc2Cl)cc(C)c1Oc1nc(Nc2ccc(C#N)cc2)nc2ccn(C)c12 [Example 80, 4-(4-(4-2-chloropyridin-3-yl)-2,6-dimethylphenoxy)-5-methyl-5H-pyrrolo[3,2-d] pyrimidin-2-ylamino benzonitrile] | 1 to 10 | 1 to 10
12 | Cc1cc(-c2ccc(C(N)=O)nc2)cc(C)c1Oc1nc(Nc2ccc(C#N)cc2)nc2c1ncn2C [Example 119, 5-(4-(2-(4-cyanophenylamino)-9-methyl-9H-purin-6-yloxy)-3,5-dimethylphenyl)picolinamide] | > 10 | < 1
13 | Cc1cc(-c2ccncc2)cc(Cl)c1Oc1nc(Nc2ccc(C#N)cc2)nc2nc[nH]c12 [Example 100, 4-(6-(2-Chloro-6-methyl-4-(pyridin-4-yl)phenoxy)-7H-purin-2-ylamino)benzonitrile] | > 10 | 1 to 10
14 | Cc1cc(-c2ccncc2C#N)cc(C)c1Oc1nc(Nc2ccc(C#N)cc2)nc2c(Cl)cn(C)c12 [Example 31, 4-(4-(7-Chloro-2-(4-cyanophenylamino)-5-methyl-5H-pyrrolo[3,2-d]pyrimidin-4-yloxy)-3,5-dimethyl-phenyl)nicotinonitrile] | < 1 | < 1
15 | Cc1cc(-c2cnc3ccccc3c2)cc(C)c1Oc1nc(Nc2ccc(C#N)cc2)nc2ccn(C)c12 [Example 41, 4-(4-(2,6-Dimethyl-4-(quinolin-3-yl)phenoxy)-5-methyl-5H-pyrrolo[3,2-d]pyrimidin-2-ylamino) benzonitrile] | > 10 | 1 to 10
16 | Cc1cc(-c2ccsc2C#N)cc(C)c1Oc1nc(Nc2ccc(C#N)cc2)nc2ccn(C)c12 [Example 34, 3-(4-(2-(4-Cyanophenylamino)-5-methyl-5H-pyrrolo [3,2-d]pyrimidin-4-yloxy)-3,5-dimethylphenyl) thiophene-2-carbonitrile] | 1 to 10 | 1 to 10

Row | Compound | EC50 (HIV-1 K103N-L100I mutant) [nM] | EC50 (wild type HIV-1) [nM]
17 | COC(=O)c1ccc(-c2cc(C)c(Oc3nc(Nc4ccc(C#N)cc4)nc4[nH]cnc34)c(C)c2)cn1 [Example 130, Methyl 5-(4-(2-(4-cyanophenylamino)-9H-purin-6-yloxy)-3,5-dimethylphenyl)picolinate] | > 10 | 1 to 10
18 | Cc1cc(-c2ccc[nH]2)cc(C)c1Oc1nc(Nc2ccc(C#N)cc2)nc2ccn(C)c12 [Example 27, 4-(4-(2,6-Dimethyl-4-(1H pyrrol-2-yl)phenoxy)-5-methyl-5H-pyrrolo[3,2-d]pyrimidin-2-ylamino) benzonitrile] | > 10 | < 1
19 | Cc1cc(-c2ccc(N)cc2)cc(C)c1Oc1nc(Nc2ccc(C#N)cc2)nc2ccn(C)c12 [Example 54, 4-(4-(4′-Amino-3,5-dimethylbiphenyl-4-yloxy)-5-methyl-5H-pyrrolo[3,2-d]pyrimidin-2-ylamino) benzonitrile] | > 10 | < 1
20 | Cc1cc(-c2ccnnc2)cc(C)c1Oc1nc(Nc2ccc(C#N)cc2)nc2ncn(C)c12 [Example 58, 4-(6-(2,6-Dimethyl-4-(pyridazin-4-yl)phenoxy)-7-methyl-7H-purin-2-ylamino)benzonitrile] | 1 to 10 | 1 to 10
21 | Cc1cc(-c2ccc(F)c(C#N)c2)cc(C)c1Oc1nc(Nc2ccc(C#N)cc2)nc2ccn(C)c12 [Example 63, 4′-(2-(4-cyanophenylamino)-5-methyl-5H-pyrrolo[3,2-d]pyrimidin-4-yloxy)-4-fluoro-3′,5′-dimethylbiphenyl-3-carbonitrile] | 1 to 10 | < 1
22 | Cc1cc(-c2cnc(C#N)nc2)cc(C)c1Oc1nc(Nc2ccc(C#N)cc2)nc2ccn(C)c12 [Example 30, 5-(4-(2-(4-Cyanophenylamino)-5-methyl-5H-pyrrolo[3,2-d]pyrimidin-4-yloxy)-3,5-dimethylphenyl)pyrimidine-2-carbonitrile] | < 1 | < 1
23 | Cc1cc(-c2ccncc2Cl)cc(C)c1Oc1nc(Nc2ccc(C#N)cc2)nc2ccn(C)c12 [Example 11, 4-(4-(4-(3-Chloropyridin-4-yl)-2,6-dimethylphenoxy)-5-methyl-5H-pyrrolo[3,2-d]pyrimidin-2-ylamino) benzonitrile] | < 1 | < 1
24 | Cc1cc(-c2ccc(C(=O)N3CCC(C#N)C3)cc2)cc(C)c1Oc1nc(Nc2ccc(C#N)cc2)nc2ccn(C)c12 (centres unmarked) [Example 91, 1-(4′-(2-(4-cyanophenylamino)-5-methyl-5H-pyrrolo[3,2-d]pyrimidin-4-yloxy)-3′,5′-dimethylbiphenylcarbonyl) pyrrolidine-3-carbonitrile] | > 10 | > 10
25 | Cc1cc(-c2cc(F)c(F)c(F)c2)cc(C)c1Oc1nc(Nc2ccc(C#N)cc2)nc2ccn(C)c12 [Example 66] | 1 to 10 | < 1
26 | Cc1cc(-c2ccc(S(N)(=O)=O)cc2)cc(Cl)c1Oc1nc(Nc2ccc(C#N)cc2)nc2ncn(C)c12 [Example 115, 3′-chloro-4′-(2-(4-cyanophenylamino)-7-methyl-7H-purin-6-yloxy)-5′-methylbiphenyl-4-sulfonamide] | < 1 | < 1
27 | Cc1cc(-c2ccncc2)cc(C)c1Oc1nc(Nc2ccc(C#N)cc2)nc2c(Cl)cn(C)c12 [Example 18, 4-(7-Chloro-4-(2,6-dimethyl-4-(pyridin-4-yl)phenoxy)-5-methyl-5H-pyrrolo[3,2-d]pyrimidin-2-ylamino)benzonitrile] | 1 to 10 | 1 to 10
28 | Cc1cc(-c2ccnc3ccccc23)cc(C)c1Oc1nc(Nc2ccc(C#N)cc2)nc2ccn(C)c12 [Example 37] | > 10 | 1 to 10
29 | Cc1cc(-c2ccccc2)cc(C)c1Oc1nc(Nc2ccc(C#N)cc2)nc2ccn(C)c12 [Example 95, 4-(4-(3,5-Dimethylbiphenyl-4-yloxy)-5-methyl-5H-pyrrolo[3,2-d]pyrimidin-2-ylamino)benzonitrile] | > 10 | > 10
30 | Cc1cc(-c2cccc(C(=O)N(C)C)c2)cc(C)c1Oc1nc(Nc2ccc(C#N)cc2)nc2ccn(C)c12 [Example 36, 4′-(2-(4-Cyanophenylamino)-5-methyl-5H-pyrrolo[3,2-d]pyrimidin-4-yloxy)-N,N,3′,5′-tetramethylbiphenyl-3-carboxamide] | > 10 | 1 to 10
31 | Cc1cc(-c2cncnc2)cc(C)c1Oc1nc(Nc2ccc(C#N)cc2)nc2ccn(C)c12 [Example 14, 4-(4-(2,6-dimethyl-4-(pyrimidin-5-yl)phenoxy)-5-methyl-5H-pyrrolo[3,2-d]pyrimidin-2-ylamino) benzonitrile] | 1 to 10 | < 1

Source: patent US8207178B2 (priority 2007, dated 2012)
